{"source": "ChEMBL document CHEMBL1201862", "about": "“PubChem BioAssay data set” (2004)", "experiment_in_all_cases": "NCI tumour cell line growth inhibition, 48 h", "key": {"[1]": {"system": "SW-620"}, "[2]": {"system": "A549"}, "[3]": {"system": "HCC 2998"}, "[4]": {"system": "COLO 205"}, "[5]": {"system": "SNB-78"}, "[6]": {"system": "M19-MEL"}, "[7]": {"system": "UO-31"}, "[8]": {"system": "SK-MEL-2"}, "[9]": {"system": "NCI-H460"}, "[10]": {"system": "SNB-19"}, "[11]": {"system": "OVCAR-5"}, "[12]": {"system": "KM-20L2"}, "[13]": {"system": "786-0"}, "[14]": {"system": "TK-10"}, "[15]": {"system": "SF-268"}, "[16]": {"system": "SNB-75"}, "[17]": {"system": "NCI-H522"}, "[18]": {"system": "MOLT-4"}, "[19]": {"system": "LOX IMVI"}, "[20]": {"system": "KM12"}, "[21]": {"system": "OVCAR-8"}, "[22]": {"system": "LXFL 529"}, "[23]": {"system": "HOP-62"}, "[24]": {"system": "SK-MEL-28"}, "[25]": {"system": "RXF 393"}, "[26]": {"system": "OVCAR-3"}, "[27]": {"system": "IGROV-1"}, "[28]": {"system": "DLD-1"}, "[29]": {"system": "NCI-H23"}, "[30]": {"system": "ACHN"}, "[31]": {"system": "A498"}, "[32]": {"system": "K562"}, "[33]": {"system": "UACC-62"}, "[34]": {"system": "NCI-H226"}, "[35]": {"system": "UACC-257"}, "[36]": {"system": "M14"}, "[37]": {"system": "SK-OV-3"}, "[38]": {"system": "DMS-273"}, "[39]": {"system": "CAKI-1"}, "[40]": {"system": "SF-295"}, "[41]": {"system": "RPMI-8226"}, "[42]": {"system": "SF-539"}, "[43]": {"system": "HL-60"}, "[44]": {"system": "SK-MEL-5"}, "[45]": {"system": "DMS-114"}, "[46]": {"system": "Malme-3M"}, "[47]": {"system": "SN12C"}, "[48]": {"system": "EKVX"}, "[49]": {"system": "HCT-116"}, "[50]": {"system": "CCRF-CEM"}, "[51]": {"system": "HT-29"}, "[52]": {"system": "U-251"}, "[53]": {"system": "HCT-15"}}, "note": "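Cells were grown in 96-well plates and exposed to each compound for 48 hours at five concentrations; endpoints were interpolated linearly between bracketing concentrations, or set to the highest concentration if not reached. Abbreviation: GI50, concentration required for 50% inhibition of growth.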 Active and inactive are the calls of the source. Cut-off read from the data, not from the text of the source: active = GI50 up to about 1.1 µM and inactive = higher."}
{"smiles": "COc1ccc2c(c1)Oc1cc(O)ccc1[C@H]2c1ccccc1C(=O)NC(C)c1ccccc1", "note": "(stereo partly drawn)", "values": [{"measurement": "GI50", "setting": "[1]", "result": "17.1 µM (inactive)"}, {"measurement": "GI50", "setting": "[2]", "result": "13.2 µM (inactive)"}, {"measurement": "GI50", "setting": "[3]", "result": "12.8 µM (inactive)"}, {"measurement": "GI50", "setting": "[4]", "result": "17.1 µM (inactive)"}, {"measurement": "GI50", "setting": "[5]", "result": "16.6 µM (inactive)"}, {"measurement": "GI50", "setting": "[6]", "result": "15.7 µM (inactive)"}, {"measurement": "GI50", "setting": "[7]", "result": "10.9 µM (inactive)"}, {"measurement": "GI50", "setting": "[8]", "result": "21.5 µM (inactive)"}, {"measurement": "GI50", "setting": "[9]", "result": "13.3 µM (inactive)"}, {"measurement": "GI50", "setting": "[10]", "result": "17.6 µM (inactive)"}, {"measurement": "GI50", "setting": "[11]", "result": "15.3 µM (inactive)"}, {"measurement": "GI50", "setting": "[12]", "result": "19.1 µM (inactive)"}, {"measurement": "GI50", "setting": "[13]", "result": "17.9 µM (inactive)"}, {"measurement": "GI50", "setting": "[14]", "result": "24.2 µM (inactive)"}, {"measurement": "GI50", "setting": "[15]", "result": "19 µM (inactive)"}, {"measurement": "GI50", "setting": "[16]", "result": "16.4 µM (inactive)"}, {"measurement": "GI50", "setting": "[17]", "result": "12 µM (inactive)"}, {"measurement": "GI50", "setting": "[18]", "result": "9.73 µM (inactive)"}, {"measurement": "GI50", "setting": "[19]", "result": "16.9 µM (inactive)"}, {"measurement": "GI50", "setting": "[20]", "result": "14.3 µM (inactive)"}, {"measurement": "GI50", "setting": "[21]", "result": "16 µM (inactive)"}, {"measurement": "GI50", "setting": "[22]", "result": "15.3 µM (inactive)"}, {"measurement": "GI50", "setting": "[23]", "result": "18.8 µM (inactive)"}, {"measurement": "GI50", "setting": "[24]", "result": "17.7 µM (inactive)"}, {"measurement": "GI50", "setting": "[25]", "result": "18.7 µM (inactive)"}, {"measurement": "GI50", "setting": "[26]", "result": "12.3 µM (inactive)"}, {"measurement": "GI50", "setting": "[27]", "result": "15.1 µM (inactive)"}, {"measurement": "GI50", "setting": "[28]", "result": "18.2 µM (inactive)"}, {"measurement": "GI50", "setting": "[29]", "result": "15.5 µM (inactive)"}, {"measurement": "GI50", "setting": "[30]", "result": "13.2 µM (inactive)"}, {"measurement": "GI50", "setting": "[31]", "result": "16.9 µM (inactive)"}, {"measurement": "GI50", "setting": "[32]", "result": "16.8 µM (inactive)"}, {"measurement": "GI50", "setting": "[33]", "result": "12.1 µM (inactive)"}, {"measurement": "GI50", "setting": "[34]", "result": "20.7 µM (inactive)"}, {"measurement": "GI50", "setting": "[35]", "result": "17.4 µM (inactive)"}, {"measurement": "GI50", "setting": "[36]", "result": "13.1 µM (inactive)"}, {"measurement": "GI50", "setting": "[37]", "result": "21 µM (inactive)"}, {"measurement": "GI50", "setting": "[38]", "result": "14.5 µM (inactive)"}, {"measurement": "GI50", "setting": "[39]", "result": "17.3 µM (inactive)"}, {"measurement": "GI50", "setting": "[40]", "result": "12.4 µM (inactive)"}, {"measurement": "GI50", "setting": "[41]", "result": "4.66 µM (inactive)"}, {"measurement": "GI50", "setting": "[42]", "result": "16.1 µM (inactive)"}, {"measurement": "GI50", "setting": "[43]", "result": "14.4 µM (inactive)"}, {"measurement": "GI50", "setting": "[44]", "result": "15.1 µM (inactive)"}, {"measurement": "GI50", "setting": "[45]", "result": "11.5 µM (inactive)"}, {"measurement": "GI50", "setting": "[46]", "result": "20.4 µM (inactive)"}, {"measurement": "GI50", "setting": "[47]", "result": "16.3 µM (inactive)"}, {"measurement": "GI50", "setting": "[48]", "result": "16.5 µM (inactive)"}, {"measurement": "GI50", "setting": "[49]", "result": "13.6 µM (inactive)"}, {"measurement": "GI50", "setting": "[50]", "result": "16 µM (inactive)"}, {"measurement": "GI50", "setting": "[51]", "result": "19.9 µM (inactive)"}, {"measurement": "GI50", "setting": "[52]", "result": "14.4 µM (inactive)"}, {"measurement": "GI50", "setting": "[53]", "result": 14.6, "unit": "µM"}]}
